pIC50: −log10 of the molar value. Entries after “also recorded” stand apart in the source; their conditions may differ. Like-named read-outs stand apart in the source and are kept apart here.
Legend:
NF-κB activity [1] = test: NF-κB luciferase reporter assay in MDA-MB-231 cells overexpressing Bcl-3; format: cell-based, human; conditions: for effect on NF-κB activity: 1 μM, 24 hrs, MDA-MB-231 Bcl-3 over-expressing cells, vs DMSO control / Compound 1a; for pIC50 / IC50: Homo sapiens; for pIC50: read-out: IC50 NF-κB activity; for IC50: Table 3, MDA-MB-231, read-out: NF-κB assay (μM) IC50
Procedure: (§1) For NF-κB luciferase assays, cells were seeded into clear bottom black 96-well plates (Corning Inc., Lowell, US) in antibiotic free culture media in appropriate density. After 24 hrs, cells were transfected with 10 ng of 3×κB luciferase plasmid and 10 ng of pcDNA3.1-Lacl plasmid per well. Empty pcDNA3.1 plasmid was also included to normalize the total weight of DNA transfected to 100 ng. For positive and negative controls respectively, 10 ng of pGL3control or pGL3basic were transfected in place of 3×KB luciferase plasmid. Transfection was carried out using Lipofectamine LTX reagents (Invitrogen, Paisley, UK).
After 48 hrs post-transfection with luciferase reporter plasmid, the media was aspirated and cells were lyzed using 50 μl/well of Glo-lysis buffer (Promega, Southampton, UK). The plate was left on a rocker for 20 min to facilitate complete cell lysis. Then, 20 μl of lysate from each well was removed and transferred into a new clear bottom black well plate for measuring LacZ activity as a transfection efficiency control and followed by addition of 20 ul/well of Beta-Glo substrate (Promega, Southampton, UK) and cultivation at room temperature for at least 20 min. Subsequently, 30 μl/well of Bright-Glo luciferase substrate (Promega, Southampton, UK) was added to the original plate and asses immediately for luminescence activity. The luminescence produced from either reaction was read using a Flurostar Optima plate reader (BMG tabtech, Bucks, UK).
The effect of Compound 1a on NF-κB activity was determined by NF-κB luciferase assay in MDA-MB-231 and HEK-293 cells overexpressing Bcl-3 and HEK-293 cells overexpressing p52. Cells were cultivated with Compound 1a over a range of molarities for 24 hrs before being transfected with NF-κB luciferase reporter plasmid for 48 hrs and analyzed for NF-κB activity.
The effect of selected analogues on NF-κB activity was determined by NF-KB luciferase assay in MDA-MB-231 cells. MDA-MB-231 Bcl-3 over-expressing cells were cultivated with compounds from series 1-3 at 1 μM concentration for 24 hrs before being transfected with NF-κB luciferase reporter plasmid for 48 hrs together with controls and analyzed for NF-κB activity.
Based on the results for the series of analogues, we have established dose response curve for selected analogues from series 1 (If), from series 2 (2a and 2c) and from series 3 (3a) over a range of molarities. MDA-MB-231 Bcl-3 WT cells were cultivated with selected compounds from series 1-3 over a range of molarities for 24 hrs before being transfected with NF-κB luciferase reporter plasmid for 48 hrs together with controls and analyzed for NF-κB activity (FIG. 7).

NF-κB activity [2] = test: NF-κB luciferase reporter assay in HEK-293 cells overexpressing Bcl-3; format: cell-based; conditions: Homo sapiens, HEK293
Procedure: as §1
(§2) After 48 hrs post-transfection with luciferase reporter plasmid, the media was aspirated and cells were lyzed using 50 μl/well of Glo-lysis buffer (Promega, Southampton, UK). The plate was left on a rocker for 20 min to facilitate complete cell lysis. […] Subsequently, 30 μl/well of Bright-Glo luciferase substrate (Promega, Southampton, UK) was added to the original plate and asses immediately for luminescence activity. The luminescence produced from either reaction was read using a Flurostar Optima plate reader (BMG tabtech, Bucks, UK).
(§3) The effect of Compound 1a on NF-κB activity was determined by NF-κB luciferase assay in MDA-MB-231 and HEK-293 cells overexpressing Bcl-3 and HEK-293 cells overexpressing p52. […]

NF-κB activity [3] = test: NF-κB luciferase reporter assay in HEK-293 p52 overexpressing cells; format: cell-based; conditions: Homo sapiens, HEK293
Procedure: as §1, §2, §3

[4] = Cell Titre Blue viability assay, MCF-10A; format: cell-based, human; conditions: human, MCF-10A cells, 1 mM, read-out: cell viability compared to DMSO control (100%)
Procedure: (§4) The viability of cells at experimental endpoints for particular assays was determined using the Cell Titre Blue reagent (Promega, Southampton, UK). This reagent measures the cellular metabolic activity using resazurin as an indicator dye. Viable cells, therefore metabolically active, will reduce resazurin into highly fluorescent resofurin. The resulting fluorescence levels are measured and indicate cell viability.
(§5) Cells were plated at low confluency into 96 well plates in 100 μl of complete growth media in triplicates and were incubated at 37° C. in 5% CO2 for the desired test exposure period. For each 100 μl of media in 96 well plates, 20 μl Cell Titre Blue reagent was added followed by incubation for an hour at 37° C. in 5% CO2. Fluorescence was then measured by setting excitation/emission wavelengths to 560/590 nm on a Flurostar Optima plate reader (BMG tabtech, Bucks, UK).
(§6) To compare the toxicity in tumorigenic as well as in non-tumorigenic breast cancer cells, we selected MCF-10A as a non-tumorigenic human breast cancer cell line and MDA-MB-231 and SKBR3 as cell models of tumorigenic human breast cancer cell line.
(§7) Cell toxicity was evaluated using the Cell Titre Blue viability assay over a range of molarities for 24 hrs.

MCF-10A cells = test: Cell Titre Blue viability assay, MCF-10A; format: cell-based, human; conditions: Homo sapiens, 24 hrs, extrapolated with GraphPad, read-out: IC50 cell viability, extrapolated from the dose-response curve
Procedure: as §4, §5, §6, §7

[5] = Solubility in commonly used solvents and PBS; format: physicochemical
Procedure: We established that the solubility of Compound 1a in most commonly used solvents is very low (Table 2) which represents an issue for biological evaluation. Therefore a hydrochloric salt of Compound 1a was synthesised and the solubility was analyzed. The obtained salt had improved solubility in water and methanol (Table 2), however it was not soluble (<0.1 g/100 ml) in Phosphate Buffered Saline (PBS). PBS is a water-based salt solution containing sodium chloride, sodium phosphate, potassium chloride and potassium phosphate, while the buffer's phosphate groups help to maintain a constant pH. PBS is non-toxic and is commonly used as an isotonic buffered solution for cell-based assays and animal studies.

MDA-MB-231 cells = test: Cell Titre Blue viability assay, MDA-MB-231; conditions: Homo sapiens, MDA-MB-231, 24 h, read-out: IC50 cell viability, extrapolated from the dose-response curve
Procedure: as §4, §5, §7
Selected compounds were dissolved in DMSO and diluted to a highest concentration of 10 μM (0.1% DMSO). In all assays, a DMSO control was always used. Selected compounds were tested for cell toxicity in HEK-293 and MDA-MB-231 cells before being used in cell-based assays. Cell toxicity was evaluated using the Cell Titre Blue viability assay over a range of molarities for 24 hrs

SKBR3 cells = test: Cell Titre Blue viability assay, SKBR3; format: cell-based, human; conditions: Homo sapiens, SK-BR-3; SKBR3, 24 hrs, extrapolated with GraphPad; read-out: IC50 cell viability, extrapolated from the dose-response curve
Procedure: as §4, §5, §6, §7

[6] = Cell Titre Blue viability assay, SKBR3; format: cell-based, human; conditions: human, SKBR3 cells; SKBR3, 1 mM, 24 hrs; read-out: cell viability compared to DMSO control (100%)
Procedure: as §4, §5, §6, §7

[7] = MDA-MB-231 Bcl-3 WT, 24 hrs then reporter 48 hrs
[8] = MDA-MB-231 overexpressing Bcl-3, 24 hrs then reporter 48 hrs

O=C(Nc1ccccc1C(=O)NCCCN1CCOCC1)c1ccccc1F [Compound 2a]
effect on NF-κB activity (NF-κB activity [1]): significantly decreased NF-κB activity; also recorded: comparable activity with Compound 1a
pIC50 (NF-κB activity [1]; [7]): 5.60
IC50 (NF-κB activity [1]): 2.5 µM

COc1ccc(C(=O)Nc2ccccc2C(=O)NCCN2CCOCC2)cc1 [Compound 1f, 2-[(4-methoxybenzoyl)amino]-N-(2-morpholin-4-ylethyl)benzamide]
effect on NF-κB activity (NF-κB activity [1]): significant decrease
pIC50 (NF-κB activity [1]; [8]): 8.16
IC50 (NF-κB activity [1]): 0.00697 µM

O=C(Nc1ccccc1C(=O)NCCN1CCOCC1)c1ccccc1F [Compound 1a, 2-[(2-fluorobenzoyl)amino]-N-(2-morpholin-4-ylethyl)benzamide]
pIC50 (NF-κB activity [2]): 6.80
pIC50 (NF-κB activity [3]): 6.68
viability at 24 h, 1000 µM [4]: 96%
pIC50 (MCF-10A cells): 1.83
Solubility ([5]; DMSO): 3.71 g/100 ml
Solubility ([5]; Dichloromethane): 2.91 g/100 ml
Solubility ([5]; Diethyl ether): 0.09 g/100 ml
Solubility ([5]; Ethanol): 0.09 g/100 ml
Solubility ([5]; Ethyl acetate): 0.34 g/100 ml
Solubility ([5]; Methanol): 0.20 g/100 ml
Solubility ([5]; water, read-out: Solubility): < 100 µg/mL
effect on NF-κB activity (NF-κB activity [1]): significant decrease; also recorded: most potent suppression of NF-κB activity
pIC50 (NF-κB activity [1]; [8]): 7.31
IC50 (NF-κB activity [1]): 0.0454 µM
pIC50 (MDA-MB-231 cells): 2.57
pIC50 (SKBR3 cells): 2.86
viability at 24 h, 1 mM [6]: 57%

COc1cccc(C(=O)NCCN2CCOCC2)c1NC(=O)c1ccccc1F [Compound 3a, 2-[(2-fluorobenzoyl)amino]-3-methoxy-N-(2-morpholin-4-ylethyl) benzamide]
effect on NF-κB activity (NF-κB activity [1]): comparable effect on NF-κB activity with Compound 1a
pIC50 (NF-κB activity [1]; [7]): 5.97
IC50 (NF-κB activity [1]): 1.07 µM

Source: patent publication US20220017478A1, “2-BENZOYLAMINOBENZAMIDE DERIVATIVES AS BCL-3 INHIBITORS” (University College Cardiff Consultants Limited, priority 2013, published 2022)
